Experiments:
Format in all cases: binding
mSin3B PAH1 domain [1] = molecular target: T1, mSin3B PAH1 domain (Mus musculus, UniProt Q62141); assay: 1H-15N HSQC titration, STD and WaterLOGSY NMR
T1 construct: gene Sin3b; PAH1 domain, a.a; 28–107 with a Met at the N-terminus (GST fusion for WaterLOGSY/STD)
T1 sequence (Q62141 28-107): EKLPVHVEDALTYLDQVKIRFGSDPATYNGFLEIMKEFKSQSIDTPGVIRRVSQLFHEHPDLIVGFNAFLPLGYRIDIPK

mSin3B PAH1 domain [2] = molecular target: T1, mSin3B PAH1 domain; assay: WaterLOGSY NMR titration; STD and 1H-15N HSQC
mSin3B PAH1 domain [3] = molecular target: T1, mSin3B PAH1 domain; assay: 1H-15N HSQC, STD and WaterLOGSY NMR (weak/moderate)
mSin3B PAH1 domain [4] = molecular target: T1, mSin3B PAH1 domain; assay: STD, WaterLOGSY and HSQC NMR

Question: How did the “1H-15N HSQC titration, STD and WaterLOGSY NMR” value (mSin3B PAH1 domain [1]) turn out when `C#CC(C)(O)CCc1cc(C)c(OC)cc1C` (stereo not shown) [YN3] was run?
Answer: Its value is “four compounds YN29, YN31, YN3, and YN28, have a strong affinity for the mSin3B PAH1 domain”.

Question: How did the Kd (mSin3B PAH1 domain [2]) turn out when `CN(C)CC/C=C1/c2ccccc2Sc2ccc(Cl)cc21` [YN28, chlorprothixene] was run?
Answer: The Kd was 35 ± 11 µM.

Question: How did the Kd (mSin3B PAH1 domain [2]) turn out when `CN(C)CCCN1c2ccccc2Sc2ccc(Cl)cc21` [YN29, chlorpromazine] was run?
Answer: The Kd was 15 ± 4.2 µM.

Question: How did the “1H-15N HSQC, STD and WaterLOGSY NMR (weak/moderate)” value (mSin3B PAH1 domain [3]) turn out when `COc1cc(CNC(=O)CCCC/C=C/C(C)C)ccc1O` [YN39] was run?
Answer: The value was “only YN39, YN40, and YN42 showed clear signals in the STD spectra”.

Question: `CNCCCC12CCC(c3ccccc31)c1ccccc12` [YN40] was tested. Which “1H-15N HSQC, STD and WaterLOGSY NMR (weak/moderate)” value (mSin3B PAH1 domain [3]) did it give?
Answer: Its value is “only YN39, YN40, and YN42 showed clear signals in the STD spectra”.

Question: `Clc1ccc2c(c1)C(N1CCNCC1)=Nc1ccccc1O2` [YN42] was tested. Which “1H-15N HSQC, STD and WaterLOGSY NMR (weak/moderate)” value (mSin3B PAH1 domain [3]) did it give?
Answer: The value was “only YN39, YN40, and YN42 showed clear signals in the STD spectra”.

Question: `Fc1ccc([C@@H]2CCNC[C@H]2COc2ccc3c(c2)OCO3)cc1` [paroxetine] was tested. Which “STD, WaterLOGSY and HSQC NMR” value (mSin3B PAH1 domain [4]) did it give?
Answer: Its value is “STD, WaterLOGSY, and HSQC experiments showed that paroxetine binds strongly to the PAH1 domain of mSin3B”.
